“Also recorded” adds a separate entry of the source.
What follows are substances tested on NCI-60 cell lines.
Format: cell-based, human
In the case of AAGAGWR, the “Cell Line (NCI-60 cell line the peptide and its motif are associated with)” value is reported as “OVCAR-4 Ovarian”. AAGGLLV was tested, and the “Cell Line (NCI-60 cell line the peptide is associated with)” value was “HCC-2998-Colon”. For AAGRAGC, the “Cell Line with which the peptide (and its tripeptide motif) is associated” value (“Cell Line with which the peptide” for short) was “H322-Lung”. For AAGREFR, the “Cell Line with which the peptide” value was “Hop-62-Lung”. AAGRIRP was tested, and the “Cell Line (NCI-60 cell line the peptide is associated with)” value was “HCT-15 Colon”. For AAGRSRI, the “Cell Line (NCI-60 cell line the peptide and its motif are associated with)” value was “M14 Melanoma”. With AAIVGVS the “Cell Line the peptide is associated with (peptide recovered from phage library selection on this NCI-60 cell line)” value was “MDA-MB-231 Breast”. With AAKTLLS the “Cell Line (NCI-60 cell line the peptide is associated with)” value was “SW620-Colon”. AALLRAV was tested, and the “Cell Line (NCI-60 cell line the peptide and its motif are associated with)” value was “OVCAR-4 Ovarian”. AARAVWG was tested, and the “Cell Line the peptide is associated with (peptide recovered from phage library selection on this NCI-60 cell line)” value was “RXF393 Renal”. AARGELR was tested, and the “Cell Line (NCI-60 cell line the peptide and its motif are associated with)” value was “UACC62 Melanoma”. For AARGLEA, the “Cell Line (NCI-60 cell line the peptide is associated with)” value was “COLO-205-Colon”. For AARGVMV, the “Cell Line (NCI-60 cell line the peptide and its motif are associated with)” value was “SK-MEL-2 Melanoma”. AASGSYY was tested, and the “Cell Line (NCI-60 cell line the peptide is associated with)” value was “HT-29 Colon”. With AASLRGT the “Cell Line (NCI-60 cell line the peptide and its motif are associated with)” value was “UACC62 Melanoma”. With AASPHPG the “Cell Line the peptide is associated with (peptide recovered from phage library selection on this NCI-60 cell line)” value was “T-47D Breast”. In the case of AASSWAV, the “Cell Line (NCI-60 cell line the peptide and its motif are associated with)” value is reported as “M14 Melanoma”. With AASTRSL the “Cell Line (NCI-60 cell line the peptide is associated with)” value was “MALME-3M Melanoma”. In the case of AASVGVA, the “Cell Line the peptide is associated with (peptide recovered from phage library selection on this NCI-60 cell line)” value is reported as “MDA-MB-231 Breast”. With AATLLSF the “Cell Line with which the peptide” value was “K-562-Leukemia”. AATRAGS was tested, and the “Cell Line (NCI-60 cell line the peptide and its motif are associated with)” value was “UACC 257 Melanoma”. With AAVETGV the “Cell Line (NCI-60 cell line the peptide is associated with)” value was “SF-268 CNS”. With AAVFVRS the “Cell Line with which the peptide” value was “K-562-Leukemia”. AAVGGRV was tested, and the “Cell Line (NCI-60 cell line the peptide and its motif are associated with)” value was “M14 Melanoma”. In the case of AAVGTAL, the “Cell Line the peptide is associated with (peptide recovered from phage library selection on this NCI-60 cell line)” value is reported as “RXF393 Renal”. AAVTVVR was tested, and the “Cell Line (NCI-60 cell line the peptide is associated with)” value was “KM-12C Colon”. In the case of AAVWAAD, the “Cell Line with which the peptide” value is reported as “HL-60-Leukemia”. For AAVWQMK, the “Cell Line (NCI-60 cell line the peptide is associated with)” value was “SNB-19 CNS; also recorded: SF-539 CNS”. In the case of AAVWWAA, the “Cell Line (NCI-60 cell line the peptide and its motif are associated with)” value is reported as “DU-145 Prostate”. For AAYWGPS, the “Cell Line the peptide is associated with (peptide recovered from phage library selection on this NCI-60 cell line)” value was “A498 Renal”. In the case of ACGSGLD, the “Cell Line (NCI-60 cell line the peptide and its motif are associated with)” value is reported as “SK-MEL-5 Melanoma”. In the case of ACTGVSR, the “Cell Line the peptide is associated with (peptide recovered from phage library selection on this NCI-60 cell line)” value is reported as “RXF393 Renal”. In the case of ADFFGLV, the “Cell Line with which the peptide” value is reported as “RPMI-8226-Leukemia”. For ADGRLRY, the “Cell Line (NCI-60 cell line the peptide is associated with)” value was “KM-12C Colon”. With ADIGAGG the “Cell Line with which the peptide” value was “HL-60-Leukemia”. ADLGAGW was tested, and the “Cell Line (NCI-60 cell line the peptide and its motif are associated with)” value was “OVCAR-4 Ovarian”. With ADWGVLE the “Cell Line (NCI-60 cell line the peptide is associated with)” value was “SNB-75 CNS”. With AECCGGL the “Cell Line the peptide is associated with (peptide recovered from phage library selection on this NCI-60 cell line)” value was “ACHN Renal”. In the case of AEDSGGR, the “Cell Line the peptide is associated with (peptide recovered from phage library selection on this NCI-60 cell line)” value is reported as “BT-549 Breast”. In the case of AEGGSGH, the “Cell Line with which the peptide” value is reported as “A549-Lung”. AEPRGRV was tested, and the “Cell Line with which the peptide” value was “H460-Lung”. AEYGRVL was tested, and the “Cell Line (NCI-60 cell line the peptide and its motif are associated with)” value was “M14 Melanoma”. With AFFMGLR the “Cell Line the peptide is associated with (peptide recovered from phage library selection on this NCI-60 cell line)” value was “ACHN Renal”. With AFGGGSM the “Cell Line the peptide is associated with (peptide recovered from phage library selection on this NCI-60 cell line)” value was “SN12C Renal”. For AFKTGGS, the “Cell Line (NCI-60 cell line the peptide and its motif are associated with)” value was “M14 Melanoma”. For AGATRGS, the “Cell Line the peptide is associated with (peptide recovered from phage library selection on this NCI-60 cell line)” value was “HS 578 T Breast”. In the case of AGDRGVA, the “Cell Line (NCI-60 cell line the peptide and its motif are associated with)” value is reported as “DU-145 Prostate”. For AGDSRLS, the “Cell Line (NCI-60 cell line the peptide is associated with)” value was “HCT-15 Colon”. With AGGFGVL the “Cell Line (NCI-60 cell line the peptide and its motif are associated with)” value was “IGROV1 Ovarian”. AGGFRFI was tested, and the “Cell Line (NCI-60 cell line the peptide and its motif are associated with)” value was “SK-MEL-2 Melanoma”. With AGGGGYH the “Cell Line the peptide is associated with (peptide recovered from phage library selection on this NCI-60 cell line)” value was “MDA-MB-435-Breast”. In the case of AGGGPPA, the “Cell Line with which the peptide” value is reported as “EKVX-Lung”. AGGIWIR was tested, and the “Cell Line (NCI-60 cell line the peptide is associated with)” value was “KM-12C Colon”. For AGGPSSY, the “Cell Line the peptide is associated with (peptide recovered from phage library selection on this NCI-60 cell line)” value was “UO31 Renal”. For AGGPTKY, the “Cell Line with which the peptide” value was “SR Leukemia”. In the case of AGGQSER, the “Cell Line with which the peptide” value is reported as “H226-Lung”. In the case of AGGRLGL, the “Cell Line (NCI-60 cell line the peptide is associated with)” value is reported as “SF-268 CNS”. With AGGRWNL the “Cell Line (NCI-60 cell line the peptide is associated with)” value was “HT-29 Colon”. With AGGSLGS the “Cell Line with which the peptide” value was “H23-Lung”. AGGTDRT was tested, and the “Cell Line the peptide is associated with (peptide recovered from phage library selection on this NCI-60 cell line)” value was “MDA-MB-231 Breast”. For AGGVRDL, the “Cell Line (NCI-60 cell line the peptide and its motif are associated with)” value was “PC3 Prostate”. With AGGWRGR the “Cell Line (NCI-60 cell line the peptide is associated with)” value was “SF-268 CNS”. With AGGWWVG the “Cell Line (NCI-60 cell line the peptide is associated with)” value was “HCT-15 Colon”. For AGIARGG, the “Cell Line with which the peptide” value was “Hop-92-Lung”. AGLALTV was tested, and the “Cell Line (NCI-60 cell line the peptide is associated with)” value was “MALME-3M Melanoma”. With AGLEDLG the “Cell Line the peptide is associated with (peptide recovered from phage library selection on this NCI-60 cell line)” value was “RXF393 Renal”. With AGLGHEG the “Cell Line with which the peptide” value was “H23-Lung”. AGLGLLD was tested, and the “Cell Line (NCI-60 cell line the peptide and its motif are associated with)” value was “SK-OV-3-3 Ovarian”. With AGLLSDV the “Cell Line the peptide is associated with (peptide recovered from phage library selection on this NCI-60 cell line)” value was “NCI/ADR-RES Breast”. For AGLPHRF, the “Cell Line the peptide is associated with (peptide recovered from phage library selection on this NCI-60 cell line)” value was “UO31 Renal”. For AGLQHAV, the “Cell Line (NCI-60 cell line the peptide is associated with)” value was “HCT-15 Colon”. For AGLSGGT, the “Cell Line with which the peptide” value was “EKVX-Lung”. AGLSGSQ was tested, and the “Cell Line with which the peptide” value was “RPMI-8226-Leukemia”. For AGLTIGI, the “Cell Line (NCI-60 cell line the peptide is associated with)” value was “SNB-19 CNS; also recorded: SF-539 CNS”. With AGLWPWN the “Cell Line the peptide is associated with (peptide recovered from phage library selection on this NCI-60 cell line)” value was “CAIK-1 Renal”. With AGPSAWL the “Cell Line with which the peptide” value was “Hop-92-Lung”. With AGPSRGP the “Cell Line (NCI-60 cell line the peptide and its motif are associated with)” value was “UACC 257 Melanoma”. With AGRFGAR the “Cell Line (NCI-60 cell line the peptide and its motif are associated with)” value was “OVCAR-8 Ovarian”. For AGRGAGG, the “Cell Line (NCI-60 cell line the peptide and its motif are associated with)” value was “OVCAR-4 Ovarian”. AGRGISQ was tested, and the “Cell Line (NCI-60 cell line the peptide and its motif are associated with)” value was “UACC62 Melanoma”. AGRHLDA was tested, and the “Cell Line the peptide is associated with (peptide recovered from phage library selection on this NCI-60 cell line)” value was “HS 578 T Breast”. For AGRIASK, the “Cell Line (NCI-60 cell line the peptide is associated with)” value was “HT-29 Colon”. With AGRICEG the “Cell Line with which the peptide” value was “CCRF-CEM Leukemia”. With AGRPDGV the “Cell Line (NCI-60 cell line the peptide and its motif are associated with)” value was “DU-145 Prostate”. With AGRPGGY the “Cell Line (NCI-60 cell line the peptide and its motif are associated with)” value was “PC3 Prostate”. AGRPRAT was tested, and the “Cell Line (NCI-60 cell line the peptide is associated with)” value was “HCT-116 Colon”. AGRRFGG was tested, and the “Cell Line with which the peptide” value was “EKVX-Lung”. For AGRRLRD, the “Cell Line the peptide is associated with (peptide recovered from phage library selection on this NCI-60 cell line)” value was “NCI/ADR-RES Breast”. With AGRSCNL the “Cell Line (NCI-60 cell line the peptide is associated with)” value was “HCT-116 Colon”. With AGRTGVG the “Cell Line with which the peptide” value was “SR Leukemia”. AGSAFWA was tested, and the “Cell Line (NCI-60 cell line the peptide and its motif are associated with)” value was 786-0 Renal. In the case of AGSGFPF, the “Cell Line (NCI-60 cell line the peptide is associated with)” value is reported as “HT-29 Colon”. For AGSIALR, the “Cell Line with which the peptide” value was “HL-60-Leukemia”. With AGSLSVF the “Cell Line with which the peptide” value was “CCRF-CEM Leukemia”. With AGSMMEF the “Cell Line (NCI-60 cell line the peptide and its motif are associated with)” value was “OVCAR-3 Ovarian”. With AGSPLAK the “Cell Line with which the peptide” value was “H23-Lung”. In the case of AGSQSWE, the “Cell Line with which the peptide” value is reported as “A549-Lung”. AGSVDLV was tested, and the “Cell Line (NCI-60 cell line the peptide and its motif are associated with)” value was “SK-MEL-5 Melanoma”. AGSVTEQ was tested, and the “Cell Line the peptide is associated with (peptide recovered from phage library selection on this NCI-60 cell line)” value was “UO31 Renal”. AGSVYSV was tested, and the “Cell Line (NCI-60 cell line the peptide and its motif are associated with)” value was “OVCAR-5 Ovarian”. For AGVFAVS, the “Cell Line with which the peptide” value was “HL-60-Leukemia”. For AGWRLSQ, the “Cell Line the peptide is associated with (peptide recovered from phage library selection on this NCI-60 cell line)” value was “CAIK-1 Renal”. AHYTLRS was tested, and the “Cell Line (NCI-60 cell line the peptide is associated with)” value was “COLO-205-Colon”. In the case of AIMGAGL, the “Cell Line (NCI-60 cell line the peptide and its motif are associated with)” value is reported as “OVCAR-8 Ovarian”. With AIRAGSD the “Cell Line with which the peptide” value was “K-562-Leukemia”. In the case of AKAGVSR, the “Cell Line the peptide is associated with (peptide recovered from phage library selection on this NCI-60 cell line)” value is reported as “MCF-7 Breast”. With AKLGSVY the “Cell Line with which the peptide” value was “H226-Lung”. For ALAGGGL, the “Cell Line (NCI-60 cell line the peptide is associated with)” value was “SNB-75 CNS”. ALARGSG was tested, and the “Cell Line (NCI-60 cell line the peptide and its motif are associated with)” value was “SK-MEL-2 Melanoma”. ALNRGSR was tested, and the “Cell Line the peptide is associated with (peptide recovered from phage library selection on this NCI-60 cell line)” value was “MDA-MB-231 Breast”. In the case of ALPGGGR, the “Cell Line (NCI-60 cell line the peptide and its motif are associated with)” value is reported as “OVCAR-5 Ovarian”. With ALVSFSV the “Cell Line with which the peptide” value was “EKVX-Lung”. In the case of ALVSRRG, the “Cell Line with which the peptide” value is reported as “Molt-4-Leukemia”. With ALVSSHV the “Cell Line (NCI-60 cell line the peptide and its motif are associated with)” value was “SK-MEL-2 Melanoma”.

From patent publication US7781565B2 (priority 2006, dated 2010)
